The results in this text go back to the Bradley open melting point set (2014).

As to `Nc1ccc([N+](=O)[O-])cc1[N+](=O)[O-]` [2,4-dinitroaniline], the melting point (commonly the temperature of the solid-liquid transition) worked out at 178 °C.

`O=[N+]([O-])c1c(Cl)cc(Cl)cc1Cl` [1,3,5-Trichloro-2-nitrobenzene] came in with a melting point of 72 °C.

The compound `N#Cc1c(Cl)cccc1Cl` [2,6-dichlorobenzonitrile] yielded a melting point of 145 °C.

With `O=C1[C@H]2C[C@@H]3C[C@@H](C[C@H]1C3)C2` [Adamantanone], the melting point is 270 °C.

The compound `OB(O)c1cccc(-c2ccccc2)c1` [biphenyl-3-boronic acid] came in with a melting point of 209 °C.

Take `O=S(=O)(Cl)c1ccc(F)cc1` [4-fluorobenzenesulfonyl chloride]: the melting point stood at 37 °C.

As for `C/C=C\C(C)(C)C` [4,4-dimethyl-cis-2-pentene], the melting point was -135 °C.

`CCCCCCC(=O)OCC` [ethyl heptanoate] returned a melting point of -66 °C.

Regarding `CC1(C)CCCCC1` [1,1-dimethylcyclohexane], the melting point is -33 °C.

The compound `CC(C)(C)NCC(O)COc1cccc2c1C[C@H](O)[C@H](O)C2` (some centres not stated) [nadolol] displayed a melting point of 125 °C.

In the case of `C/C=C/C=C/CO` [trans,trans-2,4-hexadien-1-ol], the melting point came out at 31 °C.

As for `C1CCC(NC2CCCCC2)CC1` [dicyclohexylamine], the melting point is -2 °C.
